Experimental data taken from US12581252B2, “Substituted pyrrolo[3,4-b]pyridines as PI3K-α inhibitors” (Relay Therapeutics, Inc., priority 2020, dated 2026).
pIC50: −log10 of the molar value.

Biological target: H1047R PIK3CA enzyme (Homo sapiens, UniProt P42336, H1047R)
Test: ADP-Glo Biochemical PIK3CA Kinase Assay

Chain of H1047R PIK3CA enzyme (P42336 whole entry H1047R): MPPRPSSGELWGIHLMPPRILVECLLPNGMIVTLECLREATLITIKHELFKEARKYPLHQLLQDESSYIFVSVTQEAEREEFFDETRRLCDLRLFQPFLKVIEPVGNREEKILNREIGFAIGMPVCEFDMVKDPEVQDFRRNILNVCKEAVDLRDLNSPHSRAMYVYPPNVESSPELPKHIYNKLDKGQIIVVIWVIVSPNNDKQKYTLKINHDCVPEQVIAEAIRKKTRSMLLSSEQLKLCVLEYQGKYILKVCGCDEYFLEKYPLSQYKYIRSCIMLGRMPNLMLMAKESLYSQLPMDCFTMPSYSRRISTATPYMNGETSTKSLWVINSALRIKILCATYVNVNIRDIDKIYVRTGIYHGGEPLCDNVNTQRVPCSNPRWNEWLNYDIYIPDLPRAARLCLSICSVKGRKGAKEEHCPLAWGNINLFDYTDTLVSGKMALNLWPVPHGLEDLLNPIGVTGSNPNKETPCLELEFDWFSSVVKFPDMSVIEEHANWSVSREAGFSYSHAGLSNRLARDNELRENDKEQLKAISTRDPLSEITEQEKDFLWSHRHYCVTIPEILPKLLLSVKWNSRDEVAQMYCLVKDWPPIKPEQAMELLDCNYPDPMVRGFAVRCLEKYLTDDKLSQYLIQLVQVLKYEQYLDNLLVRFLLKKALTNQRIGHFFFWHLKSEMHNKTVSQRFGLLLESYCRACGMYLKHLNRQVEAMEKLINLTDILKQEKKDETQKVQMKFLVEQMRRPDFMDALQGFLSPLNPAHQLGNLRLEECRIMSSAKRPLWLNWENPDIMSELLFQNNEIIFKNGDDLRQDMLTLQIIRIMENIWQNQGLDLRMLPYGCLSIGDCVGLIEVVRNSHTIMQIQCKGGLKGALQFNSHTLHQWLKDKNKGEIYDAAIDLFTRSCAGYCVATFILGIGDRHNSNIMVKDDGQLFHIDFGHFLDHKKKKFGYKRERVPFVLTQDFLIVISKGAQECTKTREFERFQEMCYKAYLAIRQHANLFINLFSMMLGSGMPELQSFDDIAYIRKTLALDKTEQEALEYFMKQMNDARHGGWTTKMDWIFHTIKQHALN
Chain of H1047R PIK3CA enzyme (P27986 whole entry partner): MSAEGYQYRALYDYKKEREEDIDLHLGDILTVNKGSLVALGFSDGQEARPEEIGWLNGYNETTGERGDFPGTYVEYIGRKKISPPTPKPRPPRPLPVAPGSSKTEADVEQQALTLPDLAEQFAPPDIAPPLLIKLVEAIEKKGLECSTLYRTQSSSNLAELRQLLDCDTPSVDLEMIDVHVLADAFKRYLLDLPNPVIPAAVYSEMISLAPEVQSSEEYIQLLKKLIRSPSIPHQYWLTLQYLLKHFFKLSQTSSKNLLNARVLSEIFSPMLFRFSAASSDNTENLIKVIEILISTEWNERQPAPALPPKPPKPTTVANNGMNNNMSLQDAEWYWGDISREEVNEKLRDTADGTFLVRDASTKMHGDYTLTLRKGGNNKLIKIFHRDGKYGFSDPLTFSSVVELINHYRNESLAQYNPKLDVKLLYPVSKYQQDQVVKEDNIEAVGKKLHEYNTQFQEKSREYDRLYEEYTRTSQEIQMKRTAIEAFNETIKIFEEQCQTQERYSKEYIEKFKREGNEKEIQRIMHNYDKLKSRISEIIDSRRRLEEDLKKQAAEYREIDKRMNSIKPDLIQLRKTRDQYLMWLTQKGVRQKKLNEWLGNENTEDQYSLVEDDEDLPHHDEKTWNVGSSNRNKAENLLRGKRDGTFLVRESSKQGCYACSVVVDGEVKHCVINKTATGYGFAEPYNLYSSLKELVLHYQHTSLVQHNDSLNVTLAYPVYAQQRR

| pIC50 | SMILES |
| --- | --- |
| 5.00 to 6.00 | O=C1NC(c2cc(F)ccc2Cl)c2c(NC(=O)N3CCc4c(Cl)cccc43)cccc21 (centres unmarked) [Compound I-2442] |
| ≥ 7.00 | N#Cc1cc(NC(=O)c2cc(F)cc(C(F)(F)F)c2)c2c(c1)C(=O)N[C@@H]2c1cc(F)ccc1Cl (single isomer, unassigned) [Compound I-770] |
| 4.00 to 5.00 | O=C1NC(c2cc(F)ccc2Cl)c2c(Nc3n[nH]c4ccccc34)cc(Br)cc21 (centres unmarked) [Compound I-1315] |
| 4.00 to 5.00 | Cn1ccc2c(C(=O)Nc3cc(Br)cc4c3C(c3cc(F)ccc3Cl)NC4=O)ccnc21 (centres unmarked) [Compound I-636] |
| ≥ 7.00 | CS(=O)(=O)c1cc(NC(=O)c2cc(F)cc(C(F)(F)F)c2)c2c(c1)C(=O)NC2c1cc(F)ccc1Cl (centres unmarked) [Compound I-1276] |
| ≥ 7.00 | COC(C)(C)Cc1cc(NC(=O)c2cc(F)cc(C(F)(F)F)c2)c2c(c1)C(=O)NC2c1cc(F)ccc1Cl (centres unmarked) [Compound I-820] |
| 5.00 to 6.00 | O=C(Nc1cc(Br)cc2c1C(c1cc(F)ccc1Cl)NC2=O)c1ccc(Cl)cc1 (centres unmarked) [Compound I-527] |
| 5.00 to 6.00 | O=C(Nc1ccccc1Cl)Nc1ccnc2c1C(c1ccccc1Cl)NC2=O (centres unmarked) [Compound I-296] |
| 6.30 to 7.00 | COc1cc(C(=O)Nc2cc(Br)cc3c2C(c2cc(F)ccc2C(F)F)NC3=O)cc(F)c1F (centres unmarked) [Compound I-436] |
| ≥ 7.00 | O=C(Nc1cc(N2CC3(COC3)C2)cc2c1C(c1cc(F)ccc1Cl)NC2=O)c1cc(F)cc(C(F)(F)F)c1 (centres unmarked) [Compound I-729] |
| 5.00 to 6.00 | N#CCc1cc(NC(=O)N2C[C@](O)(C(F)F)c3cc(F)ccc32)c2c(c1)C(=O)N[C@@H]2c1cc(F)ccc1Cl (single isomer, unassigned) [Compound I-2598] |
| 6.00 to 6.30 | Cc1cc(F)ccc1C1NC(=O)c2cccc(NC(=O)c3cc(F)cc(C(F)(F)F)c3)c21 (centres unmarked) [Compound I-327] |
| ≥ 7.00 | Cc1ccccc1C1NC(=O)c2c(CCO)ccc(NC(=O)c3nsc4ccccc34)c21 (centres unmarked) [Compound I-434] |
| 6.30 to 7.00 | COC1CN(c2cc(NC(=O)c3cc(F)cc(C(F)(F)F)c3)c3c(c2)C(=O)NC3c2cc(F)ccc2Cl)C1 (centres unmarked) [Compound I-728] |
| 4.00 to 5.00 | CC(=O)N1CCCC(C(=O)Nc2cc(-c3ccc4ncnn4c3)cc3c2C(c2cc(F)ccc2Cl)NC3=O)C1 (centres unmarked) [Compound I-1743] |
| ≥ 7.00 | O=C(Nc1cc(-c2cc(F)n3ncnc3c2)cc2c1[C@H](c1cc(F)ccc1Cl)NC2=O)c1cc(F)cc(C(F)(F)F)c1 [Compound I-1927] |
| 5.00 to 6.00 | Cc1ccccc1C1NC(=O)c2cccc(NC(=O)c3csc4cccc(F)c34)c21 (centres unmarked) [Compound I-67] |
| 4.00 to 5.00 | O=C1N[C@@H](c2cc(F)ccc2Cl)c2c(NC(=O)[C@@H]3CCC[C@@H](OC(F)(F)F)C3)cccc21 (single isomer, unassigned) [Compound I-2216] |
| ≥ 7.00 | CC1(Cc2cc(NC(=O)c3cc(F)cc(C(F)(F)F)c3)c3c(c2)C(=O)NC3c2cc(F)ccc2Cl)COC1 (centres unmarked) [Compound I-710] |
| ≥ 7.00 | CC(C)(COS(C)(=O)=O)c1cc(NC(=O)c2cc(F)cc(C(F)(F)F)c2)c2c(c1)C(=O)NC2c1cc(F)ccc1Cl (centres unmarked) [Compound I-656] |
| 5.00 to 6.00 | O=C1N[C@H](c2cc(F)ccc2Cl)c2c(NC(=O)N3C[C@@H](C(F)F)c4ccccc43)cccc21 (single isomer, unassigned) [Compound I-2331] |
| ≥ 7.00 | Cn1cc(C(=O)Nc2cc(NC(=O)c3cc(F)cc(C(F)(F)F)c3)c3c(c2)C(=O)NC3c2cc(F)ccc2Cl)cn1 (centres unmarked) [Compound I-336] |
| ≥ 7.00 | CN1CCN(c2cc(NC(=O)c3cc(F)cc(C(F)(F)F)c3)c3c(c2)C(=O)NC3c2cc(F)ccc2Cl)CC1=O (centres unmarked) [Compound I-1249] |
| ≥ 7.00 | O=C(Nc1cc(-c2ccc3nc(C(F)F)nn3c2)cc2c1C(c1cc(F)ccc1Cl)NC2=O)c1cc(F)cc(C(F)(F)F)c1 (centres unmarked) [Compound I-1938] |
| 6.30 to 7.00 | Cc1ccccc1C1NC(=O)c2c(CNC(=O)C(F)(F)F)ccc(NC(=O)c3csc4ccccc34)c21 (centres unmarked) [Compound I-223] |
| 6.30 to 7.00 | O=C(Nc1cc(-c2ccncc2)nc2c1C(c1cc(F)ccc1Cl)NC2=O)c1cc(F)cc(Cl)c1 (centres unmarked) [Compound I-458] |
